Read-outs that look alike come from different tables or passages of the source.
Legend:
murine splenocytes = assay: Lymphocyte viability assay (LCV, MTT) on murine splenocytes; type: cell-based; conditions: mitogen study, in words
Description: (§1) Preparation of splenocyte cell suspensions. […] The resulting supernatant was then transferred to another sterile centrifuge tube, and the cell concentration adjusted to 2×10^6 cells/ml dilution with TCM.
(§2) Determination of mycalamide A toxicity. The toxicity of mycalamide A on murine splenocytes and human PBL was determined using a colorimetric assay, based on the ability of viable cells to convert the colorless tetrazolium salt, 3-(4,5-dimethylthiazol-2yl)-2,5-diphenyl tetrazolium bromide (MTT) to a colored formazan product and trypan blue exclusion. For the colorimetric assay, a volume of 0.075 ml of an MTT solution (550 μg/ml of MTT in TCM) was added to test and control wells containing one of the populations of splenocytes or test wells and incubated for 5-6 hours following the initial incubation period. Microtiter plates were centrifuged at 100× g, supernatants carefully removed, and a volume of 0.20 ml of isopropyl alcohol was added to each well to dissolve the formazan crystals. The absorbance at 570 nm was determined for each well using an ELISA plate reader. […] As an additional parameter of toxicity, wells containing cultured lymphocytes with various dilutions of mycalamide A were examined with trypan blue, and the percentage of dye-excluding (viable) cells was determined.

[1] = as above; type: cell-based; conditions: mouse, splenocytes
Description: as §1, §2

T cells = assay: T cell viability by trypan blue exclusion; type: cell-based, murine
Description: as §2
(§3) Compounds were added as indicated. Cells were harveste
(§4) Each data point represents the mean value o

[2] = T cell viability by trypan blue exclusion; type: cell-based, murine; conditions: t cells, read-out: percentage of trypan blue-positive cells
Description: as §2, §3, §4

[3] = tested on: two-way human mixed lymphocyte response (human PBL); assay: Two-way human mixed lymphocyte reaction (MLR), 3H-thymidine incorporation; type: cell-based
Description: Preparation of human peripheral blood leukocyte (PBL) suspensions. Human peripheral blood suspensions were prepared from Leukotrap blood filters as follows: Leukotrap filters containing processed leukocytes from random, unrelated blood donors were obtained from the Indian River Blood Bank (Vero Beach, Fla.). Buffy-coat blood cell suspensions were recovered by reverse-flow phosphate-buffered saline purging and centrifugation for 15 minutes at 475× g. Buffy coats were removed, and 5 ml of the suspension was layered onto 5 ml of Histopaque gradient material. The Histopaque gradients were centrifuged at 475× g for 30 minutes. Lymphocytes were removed from the Histopaque-medium interface, and washed twice with 10 ml of PBS (Dulbecco's phosphate-buffered saline without CaCl2 and MgCl2.6H2 O). The final cell pellet was resuspended in TCM, and the cell concentration adjusted to 2×10^6 cells/ml.
Two way mixed lymphocyte reaction (MLR). The immunosuppressive properties of mycalamide A were evaluated using the two-way MLR, utilizing murine splenocytes and human PBL. For the murine MLR, splenocytes from C57Bl/6J and BALB/c mice were prepared as described above, and a volume of […] of each cell suspension was added together to test and control wells of microtiter plates. Wells containing 0.20 ml of each cell suspension alone served as controls.
Dilutions of the drug to be tested were prepared in absolute EtOH and further diluted to the appropriate concentration in TCM and added directly to the wells containing splenocyte combinations. Additional solvent (EtOH) control wells were also prepared by adding the equivalent percentage of EtOH to each culture well. Plates were incubated at 37° C. in a 5% CO2 humidified atmosphere for 88 hours. Following the incubation, 1.0 μCi of ^3 H-thymidine was added to each well, and the plates were returned to the incubator for 5 hours. The contents of each well were harvested onto glass-fiber filter strips, and the incorporation of ^3 H-thymidine was determined by a liquid scintillation counter. Similar conditions were utilized for MLR cultures using human peripheral blood lymphocytes prepared from unrelated donors as described above, with the exception that the initial incubation and subsequent ^3 H-thymidine pulse times were different (114 hours for initial incubation followed by a 6-hour incubation with ^3 H-thymidine). Plates were harvested in a similar manner, and ^3 H-thymidine incorporation determined as described above.

C=C1CC(OC)(C(O)C(=O)NC2OCOC3C2OC(CC(O)CO)C(C)(C)C3OC)OC(C)C1C (stereo not drawn) [Mycalamide A, mycalamide A]
toxicity by LCV assay (murine splenocytes; 5×10^-5 μg/ml): no toxicity
toxicity to the cells (murine splenocytes; greater than 5×10^-5 μg/ml): toxic to the cells
viability ([1]; MLR, 5.0 × 10^0 μg/ml, MTT, read-out: % Viability (LCV)): 0%
viability ([1]; MLR, 5.0 × 10^1 μg/ml, MTT, read-out: % Viability (LCV)): 0%
viability ([1]; MLR, 5.0 × 10^2 μg/ml, MTT, read-out: % Viability (LCV)): 0%
viability ([1]; MLR, 5.0 × 10^-1 μg/ml, MTT, read-out: % Viability (LCV)): 55%
viability ([1]; MLR, 5.0 × 10^-2 μg/ml, MTT, read-out: % Viability (LCV)): 79%
viability ([1]; MLR, 5.0 × 10^-3 μg/ml, MTT, read-out: % Viability (LCV)): 66%
viability ([1]; MLR, 5.0 × 10^-4 μg/ml, MTT, read-out: % Viability (LCV)): 62%
viability ([1]; MLR, 5.0 × 10^-5 μg/ml, MTT, read-out: % Viability (LCV)): 63%
viability ([1]; MLR, 5.0 × 10^-6 μg/ml, MTT, read-out: % Viability (LCV)): 83%
viability ([1]; MLR, 5.0 × 10^-7 μg/ml, MTT, read-out: % Viability (LCV)): 71%
viability ([1]; MLR, 5.0 × 10^-8 μg/ml, MTT, read-out: % Viability (LCV)): 100%
viability ([1]; MLR, 5.0 × 10^-9 μg/ml, MTT, read-out: % Viability (LCV)): > 99%
viability ([1]; MLR, 5.0 × 10^-10 μg/ml, MTT, read-out: % Viability (LCV)): > 99%
viability ([1]; MLR, 5.0 × 10^-11 μg/ml, MTT, read-out: % Viability (LCV)): > 99%
viability ([1]; MLR, 5.0 × 10^-12 μg/ml, MTT, read-out: % Viability (LCV)): > 99%
viability ([1]; MLR, 5.0 × 10^-13 μg/ml, MTT, read-out: % Viability (LCV)): > 99%
viability ([1]; MLR, 5.0 × 10^-14 μg/ml, MTT, read-out: % Viability (LCV)): > 99%
viability ([1]; MLR, 5.0 × 10^-15 μg/ml, MTT, read-out: % Viability (LCV)): > 99%
viability ([1]; MLR, 5.0 × 10^-16 μg/ml, MTT, read-out: % Viability (LCV)): > 99%
viability ([1]; MLR, 5.0 × 10^-17 μg/ml, MTT, read-out: % Viability (LCV)): > 99%
viability ([1]; MLR, 5.0 × 10^-18 μg/ml, MTT, read-out: % Viability (LCV)): > 99%
viability ([1]; MLR, 5.0 × 10^-19 μg/ml, MTT, read-out: % Viability (LCV)): > 99%
viability ([1]; mitogen study, 5.0 × 10^0 μg/ml, read-out: LCV, % viability): 1%
viability ([1]; mitogen study, 5.0 × 10^1 μg/ml, read-out: LCV, % viability): 2%
viability ([1]; mitogen study, 5.0 × 10^2 μg/ml, read-out: LCV, % viability): 3%
viability ([1]; mitogen study, 5.0 × 10^-1 μg/ml, read-out: LCV, % viability): 4%
viability ([1]; mitogen study, 5.0 × 10^-2 μg/ml, read-out: LCV, % viability): 3%
viability ([1]; mitogen study, 5.0 × 10^-3 μg/ml, read-out: LCV, % viability): 3%
viability ([1]; mitogen study, 5.0 × 10^-4 μg/ml, read-out: LCV, % viability): 4%
viability ([1]; mitogen study, 5.0 × 10^-5 μg/ml, read-out: LCV, % viability): 180%
number of cells excluding trypan blue (T cells; 1 pM, Experiment 1, 20 hours): 1.39 × 10^6 cells
number of cells excluding trypan blue (T cells; 1 pM, Experiment 2, 20 hours): 1.45 × 10^6 cells
percentage of trypan blue-positive cells (T cells; 1 pM, Experiment 2, 20 hours): < 2%
number of cells excluding trypan blue (T cells; 5 pM, Experiment 1, 20 hours): 1.41 × 10^6 cells
number of cells excluding trypan blue (T cells; 5 pM, Experiment 2, 20 hours): 1.68 × 10^6 cells
percentage of trypan blue-positive cells (T cells; 5 pM, Experiment 2, 20 hours): < 2%
number of cells excluding trypan blue (T cells; 10 pM, Experiment 2, 20 hours): 1.49 × 10^6 cells
effect on T cell viability (T cells; trypan blue exclusion, in words): did not significantly affect the cell viability
cytotoxicity at 20 h, 1e-06 µM ([2]; 1 pM, Experiment 1, 20 hours): < 2%
cytotoxicity at 20 h, 5e-06 µM ([2]; 5 pM, Experiment 1, 20 hours): < 2%
cytotoxicity at 20 h, 1e-05 µM ([2]; 10 pM, Experiment 2, 20 hours): < 2%
activity at 0.5 µg/mL ([3]; 120 h, human, 5.0 × 10^-1 μg/ml, read-out: % of Positive Control MLR): 0%
activity at 0.05 µg/mL ([3]; 120 h, human, 5.0 × 10^-2 μg/ml, read-out: % of Positive Control MLR): 0%
activity at 0.005 µg/mL ([3]; 120 h, human, 5.0 × 10^-3 μg/ml, read-out: % of Positive Control MLR): 0%
activity at 0.0005 µg/mL ([3]; 120 h, human, 5.0 × 10^-4 μg/ml, read-out: % of Positive Control MLR): 40%
activity at 50 pg/mL ([3]; 120 h, human, 5.0 × 10^-5 μg/ml, read-out: % of Positive Control MLR): 43%
activity at 5 pg/mL ([3]; 120 h, human, 5.0 × 10^-6 μg/ml, read-out: % of Positive Control MLR): 71%
activity at 500 fg/mL ([3]; 120 h, human, 5.0 × 10^-7 μg/ml, read-out: % of Positive Control MLR): 81%
IC50 ([3]; Homo sapiens): 0.017 ng/mL
